According to patent US20050255493A1, “Molecular targeting of the IGF-1 receptor” (priority 2002, published 2005):

Legend:
[1] = test system: IGF1R mRNA; test: Oligonucleotide scanning array hybridisation with labelled transcript; format: binding, human; conditions: scanning array, peak 4 region (FIG. 11B)
Method: Scanning arrays complementary to the region of the IGF1R mRNA from position 537-685 were prepared using the standard techniques described in Southern E. M. et al., Nucleic Acids Res., 1994, 22(8): 1368-1373; and Sohail, M. and Southern, E. M. “Using oligonucleotide scanning arrays to find effective antisense reagents”, Methods in Molecular Biology, vol. 170: DNA Arrays: Methods and Protocols, Ed J. B. Rampal, Humana Press Inc., Totowa, N.J.
The scanning arrays comprise sets of oligonucleotides of various lengths. A series of oligonucleotides, complementary to the target mRNA, is made by sequential coupling of nucleotides to a solid surface. The DNA synthesis reagents are applied to a confined area on the surface of the solid support using a mask. The mask is shifted along the surface after each round of coupling, resulting in a series of oligonucleotides each complementary to a region of the target sequence.
• 2. Remove 1 μL for quantitation (see below). • 3. Remove unincorporated label by Sephadex® G25 column chromatography (see Note 11). • 4. Save 1 μL of the purified transcript for quantitation (see below). • 5. Check the integrity of the transcript by denaturing polyacrylamide gel electrophoresis (10). • 6. Add 10 μL of the scintillation fluid to the samples saved in Steps 2 and 4. • 7. Mix by vortexing and count the samples in a scintillation counter for 1 min. • 8. Calculate the percent incorporation: [formula] • 9. Calculate the amount of RNA made: [formula] Hybridisation to Arrays Made on Polypropylene • 1. Place the array in the hybridisation tube, coiling it in a spiral. • 2. Dilute the radiolabelled transcript in an appropriate volume (10-20 mL depending upon the size of the array and the hybridisation tube) of hybridisation buffer. The mix should cover the array along the length of the tube. • 3. Place items 1 and 2 in the oven at desired temperature for 30 min. Also put approximately 100 mL of the hybridisation buffer in the oven: this is to be used to wash the array at the end of hybridisation. • 4. Pour the hybridisation mix into the tube containing the array and hybridise for 3-4 h. • 5. Remove the hybridisation mix. Briefly wash the array with the hybridisation buffer from Step 3, air dry, cover with cling film and expose to a storage phosphor screen for 16-20 h (see Note 12). • 6. Scan the screen on PhosphorImager or STORM and analyse the image using xvseq (see below). Hybridisation to Arrays Made on Glass • 1. Clean the non-array glass plate with acetone and ethanol to ensure it is grease-free and siliconise it by treatment with dimethyl dichlorosilane solution and place it in lidded box. Also place moist paper towel in the box. • 2. Dilute the radiolabelled transcript in an appropriate volume of the hybridisation buffer (for example, for an array of 250 mm×50 mm use 500-750 μL). • 3. Place items 1 and 2 in an incubator at desired temprature for 30 min. Also put approximately 100 mL of the hybridisation buffer in the oven: this is to be used to wash the array at the end of hybridisation. • 4. Using a micropipette, pipette the hybridisation mix in a line evenly along the length of the non-array glass plate, avoiding formation of air bubbles. • 5. Starting at one end, carefully place the scanning array (face down) on top of the hybridisation mix. The mix will spread out and form a thin film between the two plates. Incubate for 3-4 h. • 6. Separate the plates from each other and wash the array plate with hybridisation buffer to remove unbound mix. Drain the plate, air dry, cover with cling film and expose to a storage phosphor screen for 16-20 h. • 7. Scan the screen on PhosphorImager or STORM and analyse the image using xvseq (see below). Alternative Hybridisation Protocol for Glass or Polypropylene • 1. Assemble with clips the array plate (or polypropylene array pasted with PhotoMount™ on a glass plate) and the non-array plate, using rubber tubing as spacers on two sides. • 2. […]

[2] = test system: A549 cells; test: Anchorage-independent growth of A549 cells (polyHema plates, MTS assay); format: cell-based, human; conditions: 200 nM duplex, MTS assay 10 days later
Method: FIG. 12 illustrates growth of A549 cells under anchorage-independent conditions, in 24-well plates coated with polyHema to prevent adherence. Cells were transfected with 200 nM duplex, re-seeded the next day into polyHema-coated plates at 500 cells/well. MTS assay performed 10 days later. UT=untransfected. **p<0.01 for comparison of R4 with Scr.

[3] = test system: DU145 cells; test: Etoposide-induced apoptosis in DU145 cells (caspase 3/7 activation, annexin V staining); format: cell-based, human; conditions: 200 nM, annexin staining and caspase 3/7 activation
Method: FIG. 13 illustrates the effect of siRNA R4 on apoptosis in prostate cancer cells. DU145 cells were transfected with 200 nM R4 or scrambled control, and after 48 hr were treated with etoposide or vehicle without drug. After overnight incubation at 37° C. the incidence of apoptosis was measured by caspase 3/7 activation assay (Promega; left panel), or by flow cytometry after staining with annexin V and propodium iodide (right panel).

**Q.** With “R4: RNAi duplex CAAUGAGUACAACUACCGCTT / TTGUUACUCAUGUUGAUGGCG, SEQ ID NO:30 (CAAUGAGUACAACUACCGCNN; second strand not cited, chemistry not fully specified)” as the substance, how does the “Difference in hybridization intensity between the 19mer ASOs equivalent to R4 and R5” value [1] read?
**A.** Its value is ~6.5 fold.

**Q.** And the “Anchorage-independent growth” value [2]?
**A.** Its value is “significant inhibition of anchorage-independent growth”.

**Q.** What about the “Etoposide-induced apoptosis” value [3] of the same substance?
**A.** Its value is “enhanced etoposide-induced apoptosis”.
